{"source": "patent US7265119B2", "about": "“Tartrate salts of 5,8,14-triazatetracyclo[10.3.1.02,11.04.9]-hexadeca-2(11),3,5,7,9-pentaene and pharmaceutical compositions thereof” (Pfizer Inc, priority 2001, dated 2007)", "type_in_all_cases": "physicochemical", "key": {"[1]": {"assay": "polymorph stability / interconversion on exposure to relative humidity", "conditions": "for stability at RH greater than 60%: experiments at 75% and 87% relative humidity", "description": "Upon filtering off the Form C which precipitates out as a white salt, the Form C salt may be air dried.\nExperiments at 23% and 43% RH have verified this phenomena."}, "[2]": {"assay": "stability of the hydrate under vacuum at moderate temperature", "conditions": "for stability (in words): ambient conditions / low humidity", "description": "The L-tartrate salt exists as three possible forms: two anhydrous forms and one hydrate form."}, "hygroscopicity": {"assay": "hygroscopicity", "protocol": "Further, the Form B forms orthorhombic crystals belonging to the P2(1)2(1)2(1) space group. Form B is further characterized in having an onset of melting at about 215° C. as measured by differential scanning calorimetry at a heating rate of 5 degrees per minute. […] In addition, Form B has a hygroscopicity of approximately 0.2% at 90% relative humidity."}, "[3]": {"assay": "solid-state stability and excipient compatibility"}, "aqueous solubility": {"assay": "aqueous solubility", "conditions": "water, pH 3.3, water"}, "[4]": {"assay": "native pH in aqueous solution"}}, "note": "Where a name gives a salt, the structure may show the parent alone."}
{"smiles": "O=C(O)C(O)C(O)C(=O)O.c1cnc2cc3c(cc2n1)C1CNCC3C1", "note": "[Form C, L-Tartrate Saft Form C of 5,8,14-Triazatetracyclo[10.3.1.0^2,11.0^4,9]-hexadeca-2(11),3,5,7,9-pentaene (Form C)]", "values": [{"measurement": "stability at RH greater than 60%", "setting": "[1]", "value": "relatively stable over a several month period"}, {"measurement": "behaviour on exposure to less than 50% RH", "setting": "[1]; less than 50% RH, experiments at 23% and 43% RH", "value": "more slowly dehydrate"}, {"measurement": "time the hydrate maintains its one equivalent of water under vacuum", "setting": "[2]; 45° C. vacuum oven", "value": "≥ 24", "unit": "h"}, {"measurement": "stability (in words)", "setting": "[2]", "value": "relatively stable under ambient conditions"}, {"measurement": "time after which the hydrate loses water and converts to anhydrous Form B", "setting": "[2]; under vacuum at moderate temperatures", "value": "≥ 48", "unit": "h"}]}
{"smiles": "c1cnc2cc3c(cc2n1)C1CNCC3C1", "note": "[L-tartrate salt, L-tartrate salt of 5,8,14-triazatetracyclo[10.3.1.0^2,11.0^4,9]-hexadeca-2(11),3,5,7,9-pentaene]", "values": [{"measurement": "hygroscopicity (in words)", "setting": "hygroscopicity", "value": "very slightly hygroscopic"}, {"measurement": "solid-state stability", "setting": "[3]", "value": "high solid-state stability"}, {"measurement": "inertness towards excipients", "setting": "[3]; common excipients", "value": "relative inertness towards common excipients"}]}
{"smiles": "c1cnc2cc3c(cc2n1)C1CNCC3C1", "note": "[Form B, L-Tartrate Salt of 5,8,14-Triazatetracyclo[10.3.1.0^2,11.0^4,9]-hexadeca-2(11),3,5,7,9-pentaene (Anhydrous Polymorph, Form B)]", "values": [{"measurement": "solubility", "setting": "aqueous solubility", "value": "~156", "unit": "mg/mL"}, {"measurement": "native pH in aqueous solution", "setting": "[4]", "value": "about 3.3"}, {"measurement": "hygroscopicity", "setting": "hygroscopicity; at 90% relative humidity", "value": "approximately 0.2%"}, {"measurement": "stability at RH greater than 60%", "setting": "[1]", "value": "relatively stable over a several month period"}, {"measurement": "time for conversion of Form B to Form C", "setting": "[1]; exposed to 100% RH", "value": "≤ 2", "unit": "days"}, {"measurement": "stability (in words)", "setting": "[2]", "value": "most stable of the polymorphs at low humidity"}]}
{"smiles": "O=C(O)C(O)C(O)C(=O)O.c1cnc2cc3c(cc2n1)C1CNCC3C1", "note": "[Form A′, D-tartrate salt of 5,8,14-triazatetracyclo[10.3.1.0^2,11.0^4,9]-hexadeca-2(11),3,5,7,9-pentaene]", "values": [{"measurement": "hygroscopicity compared with the corresponding Form A, B or C of the L-tartrate salt", "setting": "hygroscopicity", "value": "the same"}]}
